# From ChEMBL document CHEMBL1151314, “Phenylethanoid glycosides from Digitalis purpurea and Penstemon linarioides with PKCalpha-inhibitory activity” (J Nat Prod, 1998)
# Biological target: Protein kinase C alpha type (Homo sapiens, UniProt P17252)
# Experiment: Inhibition of human recombinant PKCalpha
row,Compound,IC50
1,COc1ccc(CCO[C@@H]2O[C@H](CO[C@@H]3O[C@@H](C)[C@H](O)[C@@H](O)[C@H]3O)[C@@H](OC(=O)/C=C/c3ccc(O)c(OC)c3)[C@H](O[C@@H]3O[C@@H](C)[C@H](O)[C@@H](O)[C@H]3O)[C@H]2O)cc1O,125 µM
2,C[C@@H]1O[C@@H](OC[C@H]2O[C@@H](OCCc3ccc(O)c(O)c3)[C@H](O)[C@@H](O)[C@@H]2OC(=O)/C=C/c2ccc(O)c(O)c2)[C@H](O)[C@H](O)[C@H]1O [FORSYTHIASIDE],1.9 µM
3,O=C(/C=C/c1ccc(O)c(O)c1)OC[C@H]1O[C@@H](OCCc2ccc(O)c(O)c2)[C@H](O)[C@@H](O[C@@H]2O[C@H](CO)[C@@H](O)[C@H](O)[C@H]2O)[C@@H]1O [PLANTAINOSIDE D],14.8 µM
4,C[C@@H]1O[C@@H](O[C@@H]2[C@@H](O)[C@H](OCCc3ccc(O)c(O)c3)O[C@H](CO)[C@H]2OC(=O)/C=C/c2ccc(O)c(O)c2)[C@H](O)[C@H](O)[C@H]1O [ACETOSIDE],9.3 µM
5,O=C(/C=C/c1ccc(O)c(O)c1)OC[C@H]1O[C@@H](OCCc2ccc(O)c(O)c2)[C@H](O)[C@@H](O)[C@@H]1O [CALCEOLARIOSIDE B],4.6 µM
6,O=C(/C=C/c1ccc(O)c(O)c1)O[C@H]1[C@H](O)[C@@H](O)[C@H](OCCc2ccc(O)c(O)c2)O[C@@H]1CO [CALCEOLARIOSIDE A],0.6 µM
7,COc1cc(/C=C/C(=O)O[C@H]2[C@H](O[C@@H]3O[C@@H](C)[C@H](O)[C@@H](O)[C@H]3O)[C@@H](O)[C@H](OCCc3ccc(O)c(O)c3)O[C@@H]2CO)ccc1O [LEUCOSCEPTOSIDE A],19 µM
8,C[C@@H]1O[C@@H](OC[C@H]2O[C@@H](OCCc3ccc(O)c(O)c3)[C@H](O)[C@@H](O[C@@H]3O[C@@H](C)[C@H](O)[C@@H](O)[C@H]3O)[C@@H]2OC(=O)/C=C/c2ccc(O)c(O)c2)[C@H](O)[C@H](O)[C@H]1O [POLIUMOSIDE],24.4 µM
